Measurements reported in US20110295037A1, “PROCESSES FOR PREPARING CINACALCET HYDROCHLORIDE AND POLYMORPHIC FORMS THEREOF” (MEDICHEM, S.A., priority 2006, published 2011).

Test: Particle size distribution (Malvern Mastersizer S, by volume)
Assay type: physicochemical
Conditions: hydrochloride
Protocol: VI. Particle Size Distribution Method
The particle size for cinacalcet hydrochloride was measured using a Malvern Mastersizer S particle size analyzer with an MS1 Small Volume Sample Dispersion Unit stirred cell. A 300RF mm lens and a beam length of 2.4 mm were used. Samples for analysis were prepared by dispersing a weighed amount of cinacalcet hydrochloride (approximately 60 mg) in 20 mL of sample dispersant, previously prepared by dilution of 1.5 g of Soybean Lecithin to 200 mL with Isopar G. The suspension was delivered drop-wise to a background corrected measuring cell previously filled with dispersant (Isopar G) until the obscuration reached the desired level. Volume distributions were obtained for three times. After completing the measurements, the sample cell was emptied and cleaned, refilled with suspending medium, and the sampling procedure repeated again. For characterization, the values of D10, D50 and D90 (by volume) were specifically listed, each one being the mean of the nine values available for each characterization parameter.

- particle size distribution D90 (v) (after milling): 24 μm
- particle size distribution D90 (v) (after recrystallization from heptane-isobutylacetate): 263 μm
- particle size distribution D90 (v) (after recrystallization from isobutylacetate): 47 μm
Compound: C[C@@H](NCCCc1cccc(C(F)(F)F)c1)c1cccc2ccccc12.Cl [cinacalcet hydrochloride, N-[1-(R)-(−)-(1-naphthyl)ethyl]-3-[3-(trifluoromethyl)phenyl]-1-aminopropane hydrochloride]
